Measurements from ChEMBL document CHEMBL4052588, “Design of a Biased Potent Small Molecule Inhibitor of the Bromodomain and PHD Finger-Containing (BRPF) Proteins Suitable for Cellular and in Vivo Studies” (J Med Chem, 2017).
Blank lines part the entries; values can stand above or below the compound they belong to.

Assays:
Peregrin = target: T1, Peregrin (Homo sapiens, UniProt P55201); assay: Inhibition of human BRPF1 expressed in Escherichia coli BL21 after 1 hr by BROMOscan assay
T1 sequence (P55201 whole entry): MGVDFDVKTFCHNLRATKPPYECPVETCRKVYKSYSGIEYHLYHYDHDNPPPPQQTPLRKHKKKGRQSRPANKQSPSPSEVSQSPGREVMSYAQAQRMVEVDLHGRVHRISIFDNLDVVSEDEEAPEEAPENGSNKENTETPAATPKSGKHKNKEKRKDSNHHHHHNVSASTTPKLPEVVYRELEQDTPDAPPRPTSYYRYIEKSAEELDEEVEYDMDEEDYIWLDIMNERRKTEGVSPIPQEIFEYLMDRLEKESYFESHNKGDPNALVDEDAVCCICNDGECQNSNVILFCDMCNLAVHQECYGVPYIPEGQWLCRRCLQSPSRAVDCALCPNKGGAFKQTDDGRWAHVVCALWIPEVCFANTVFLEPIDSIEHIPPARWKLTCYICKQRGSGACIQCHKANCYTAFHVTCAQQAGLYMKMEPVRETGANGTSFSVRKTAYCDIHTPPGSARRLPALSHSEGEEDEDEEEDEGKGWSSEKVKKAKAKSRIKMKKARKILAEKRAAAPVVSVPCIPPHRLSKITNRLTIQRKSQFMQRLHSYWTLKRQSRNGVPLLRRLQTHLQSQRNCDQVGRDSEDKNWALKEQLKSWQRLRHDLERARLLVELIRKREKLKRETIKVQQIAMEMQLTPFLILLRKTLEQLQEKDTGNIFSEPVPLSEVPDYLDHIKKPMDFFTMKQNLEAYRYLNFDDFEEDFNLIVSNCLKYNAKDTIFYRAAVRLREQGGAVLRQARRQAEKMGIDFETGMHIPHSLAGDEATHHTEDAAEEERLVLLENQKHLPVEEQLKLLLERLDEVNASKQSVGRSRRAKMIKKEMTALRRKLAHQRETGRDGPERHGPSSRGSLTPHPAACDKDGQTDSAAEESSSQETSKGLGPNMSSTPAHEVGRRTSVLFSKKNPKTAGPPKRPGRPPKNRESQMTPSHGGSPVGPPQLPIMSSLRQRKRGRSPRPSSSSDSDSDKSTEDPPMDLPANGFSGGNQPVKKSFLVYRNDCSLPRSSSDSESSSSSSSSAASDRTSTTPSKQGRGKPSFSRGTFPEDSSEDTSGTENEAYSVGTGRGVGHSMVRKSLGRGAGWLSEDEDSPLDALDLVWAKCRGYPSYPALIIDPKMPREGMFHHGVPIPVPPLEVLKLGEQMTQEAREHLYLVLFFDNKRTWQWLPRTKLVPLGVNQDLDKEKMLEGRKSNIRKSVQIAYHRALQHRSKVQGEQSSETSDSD

Peregrin (Homo sapiens) = target: T2, Peregrin (Homo sapiens) (UniProt P55201)
T2 sequence (whole entry): T1 sequence (P55201 whole entry)

[1] = target: T3, Bromodomain-containing protein 1 (Homo sapiens) (UniProt O95696)
T3 sequence (whole entry): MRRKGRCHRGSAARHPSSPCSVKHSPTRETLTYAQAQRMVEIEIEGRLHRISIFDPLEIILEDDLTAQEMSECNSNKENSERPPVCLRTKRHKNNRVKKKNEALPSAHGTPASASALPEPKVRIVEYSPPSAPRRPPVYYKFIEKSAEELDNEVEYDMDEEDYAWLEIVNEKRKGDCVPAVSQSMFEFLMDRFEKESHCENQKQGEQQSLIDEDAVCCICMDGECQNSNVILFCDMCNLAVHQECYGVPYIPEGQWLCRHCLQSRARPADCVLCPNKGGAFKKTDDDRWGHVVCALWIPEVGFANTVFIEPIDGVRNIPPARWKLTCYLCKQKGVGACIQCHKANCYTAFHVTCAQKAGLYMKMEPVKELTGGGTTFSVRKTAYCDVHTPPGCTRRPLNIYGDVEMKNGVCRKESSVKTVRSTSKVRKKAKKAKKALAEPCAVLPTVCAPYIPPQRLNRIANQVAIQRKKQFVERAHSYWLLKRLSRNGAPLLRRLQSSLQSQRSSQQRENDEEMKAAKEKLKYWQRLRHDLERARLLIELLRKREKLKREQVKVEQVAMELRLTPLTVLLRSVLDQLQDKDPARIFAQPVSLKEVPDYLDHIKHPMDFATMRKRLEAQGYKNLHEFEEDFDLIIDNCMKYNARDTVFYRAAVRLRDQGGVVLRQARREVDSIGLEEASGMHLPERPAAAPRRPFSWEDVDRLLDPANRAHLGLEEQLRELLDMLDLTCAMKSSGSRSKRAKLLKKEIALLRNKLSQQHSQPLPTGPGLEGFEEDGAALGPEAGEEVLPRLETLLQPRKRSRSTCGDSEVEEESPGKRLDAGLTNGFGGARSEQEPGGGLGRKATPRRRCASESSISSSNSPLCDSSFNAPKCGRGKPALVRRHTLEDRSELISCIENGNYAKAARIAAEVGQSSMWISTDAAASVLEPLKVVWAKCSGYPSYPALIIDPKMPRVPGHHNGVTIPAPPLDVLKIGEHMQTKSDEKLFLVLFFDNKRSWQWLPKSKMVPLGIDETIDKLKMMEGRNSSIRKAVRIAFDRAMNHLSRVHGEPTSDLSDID

[2] = target: T4, Bromodomain and PHD finger-containing protein 3 (Homo sapiens) (UniProt Q9ULD4)
T4 sequence (whole entry): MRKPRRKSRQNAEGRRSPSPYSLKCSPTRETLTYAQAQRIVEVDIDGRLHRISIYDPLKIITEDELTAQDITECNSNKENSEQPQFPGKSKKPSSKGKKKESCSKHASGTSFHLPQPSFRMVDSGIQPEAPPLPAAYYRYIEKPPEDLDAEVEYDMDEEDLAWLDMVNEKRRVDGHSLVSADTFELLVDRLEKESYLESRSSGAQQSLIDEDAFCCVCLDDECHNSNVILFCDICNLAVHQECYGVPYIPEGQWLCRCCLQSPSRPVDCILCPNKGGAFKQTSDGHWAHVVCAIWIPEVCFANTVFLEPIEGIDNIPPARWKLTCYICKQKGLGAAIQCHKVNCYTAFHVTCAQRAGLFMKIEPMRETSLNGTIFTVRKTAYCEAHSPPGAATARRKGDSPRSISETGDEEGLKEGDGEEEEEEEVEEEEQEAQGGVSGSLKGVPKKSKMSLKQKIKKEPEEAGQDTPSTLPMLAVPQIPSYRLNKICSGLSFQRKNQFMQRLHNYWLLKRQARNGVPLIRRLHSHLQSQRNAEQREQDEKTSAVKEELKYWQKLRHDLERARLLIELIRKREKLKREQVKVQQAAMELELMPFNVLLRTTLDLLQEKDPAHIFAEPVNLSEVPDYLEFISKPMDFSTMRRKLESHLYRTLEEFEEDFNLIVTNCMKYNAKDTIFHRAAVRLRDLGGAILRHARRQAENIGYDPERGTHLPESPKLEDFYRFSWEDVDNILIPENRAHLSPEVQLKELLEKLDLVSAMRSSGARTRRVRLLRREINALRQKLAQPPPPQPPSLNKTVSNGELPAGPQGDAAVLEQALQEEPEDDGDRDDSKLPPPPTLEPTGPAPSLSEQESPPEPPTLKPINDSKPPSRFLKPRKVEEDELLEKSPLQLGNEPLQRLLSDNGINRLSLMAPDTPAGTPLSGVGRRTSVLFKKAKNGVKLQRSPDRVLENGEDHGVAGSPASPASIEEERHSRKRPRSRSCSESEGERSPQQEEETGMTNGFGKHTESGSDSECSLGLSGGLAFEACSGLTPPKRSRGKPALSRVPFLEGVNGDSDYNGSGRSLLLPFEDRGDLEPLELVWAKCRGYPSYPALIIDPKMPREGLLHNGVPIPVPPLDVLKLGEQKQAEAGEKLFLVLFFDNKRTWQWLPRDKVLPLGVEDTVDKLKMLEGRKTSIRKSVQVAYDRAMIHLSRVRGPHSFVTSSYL

[3] = target: T5, Bromodomain and PHD finger-containing protein 3 (Homo sapiens, UniProt Q9ULD4); assay: Inhibition of human BRPF3 expressed in Escherichia coli BL21 after 1 hr by BROMOscan assay
T5 sequence (Q9ULD4 whole entry): T4 sequence (whole entry)

[4] = target: T6, Bromodomain-containing protein 4 (Homo sapiens, UniProt O60885); assay: Inhibition of human BRD4-BD1 expressed in Escherichia coli BL21 after 1 hr by BROMOscan assay
[5] = target: T7, Bromodomain-containing protein 9 (Homo sapiens) (UniProt Q9H8M2)
T7 sequence (whole entry): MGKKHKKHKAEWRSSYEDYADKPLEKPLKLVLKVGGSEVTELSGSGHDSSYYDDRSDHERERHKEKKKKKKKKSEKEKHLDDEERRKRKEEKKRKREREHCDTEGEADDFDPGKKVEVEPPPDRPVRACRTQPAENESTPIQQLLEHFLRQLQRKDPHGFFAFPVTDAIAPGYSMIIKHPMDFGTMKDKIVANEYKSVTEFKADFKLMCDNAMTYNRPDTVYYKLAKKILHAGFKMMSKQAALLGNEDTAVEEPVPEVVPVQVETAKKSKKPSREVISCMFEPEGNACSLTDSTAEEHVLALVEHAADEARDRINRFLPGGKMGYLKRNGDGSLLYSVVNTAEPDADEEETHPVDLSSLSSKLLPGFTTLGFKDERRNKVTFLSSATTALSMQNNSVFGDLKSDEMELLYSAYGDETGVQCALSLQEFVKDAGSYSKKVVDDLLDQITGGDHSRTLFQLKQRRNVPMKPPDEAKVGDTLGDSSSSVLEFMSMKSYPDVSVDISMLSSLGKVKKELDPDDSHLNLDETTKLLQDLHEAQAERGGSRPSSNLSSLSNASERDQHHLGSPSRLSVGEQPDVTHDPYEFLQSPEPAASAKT

[6] = target: T6, Bromodomain-containing protein 4
[7] = target: T8, Bromodomain-containing protein 9 (Homo sapiens, UniProt Q9H8M2); assay: Inhibition of human BRD9 expressed in Escherichia coli BL21 after 1 hr by BROMOscan assay
T8 sequence (Q9H8M2 whole entry): T7 sequence (whole entry)

[8] = target: T9, Bromodomain-containing protein 1 (Homo sapiens, UniProt O95696); assay: Inhibition of human BRPF2-BRD1 expressed in Escherichia coli BL21 after 1 hr by BROMOscan assay
T9 sequence (O95696 whole entry): T3 sequence (whole entry)

Compound: CCn1c(=O)c(C)cc2cc(NS(=O)(=O)c3ccc(C#N)cc3)ccc21
IC50 (Peregrin): 15 nM
ΔTm (Peregrin (Homo sapiens)): 5.2 °C
ΔTm [1]: 1.5 °C
ΔTm [2]: 1.2 °C

Compound: Cn1c(=O)ccc2cc(NS(=O)(=O)c3ccccc3)ccc21
IC50 [7]: 220 nM
IC50 [4]: 1700 nM
ΔTm [1]: 1.9 °C
ΔTm [2]: 1.5 °C
ΔTm [5]: 3.5 °C
ΔTm [6]: 1.1 °C

Compound: Cn1c(=O)ccc2cc(N)ccc21
IC50 (Peregrin): 2100 nM

Compound: Cc1cc2cc(N)ccc2n(C)c1=O
IC50 (Peregrin): 190 nM

Compound: COc1ccccc1S(=O)(=O)Nc1ccc2c(c1)cc(C)c(=O)n2C
IC50 [4]: 600 nM

Second part, the compound after the results:

IC50 [3]: 1000 nM
IC50 [4]: 2800 nM
ΔTm [1]: 2.4 °C
ΔTm [5]: 2.3 °C
ΔTm [6]: 1.4 °C
Compound: Cn1c(=O)ccc2cc(NS(=O)(=O)c3ccc(C#N)cc3)ccc21

ΔTm [1]: 2.1 °C
ΔTm [5]: 2.5 °C
ΔTm [6]: 1.1 °C
Compound: Cn1c(=O)ccc2cc(NS(=O)(=O)c3cccc(C#N)c3)ccc21

IC50 (Peregrin): 180 nM
ΔTm [1]: 3.3 °C
Compound: CCc1cc2cc(NS(=O)(=O)c3ccc(C#N)cc3)ccc2n(C)c1=O

IC50 (Peregrin): 44 nM
IC50 [8]: 230 nM
ΔTm (Peregrin (Homo sapiens)): 4.9 °C
ΔTm [1]: 2.5 °C
Compound: Cn1c(=O)ccc2cc(NS(=O)(=O)c3ccc(Cl)c(Cl)c3)ccc21

ΔTm [1]: 0.9 °C
ΔTm [5]: 2.9 °C
ΔTm [6]: 1.3 °C
Compound: Cn1c(=O)ccc2cc(NS(=O)(=O)c3ccccc3C#N)ccc21

ΔTm (Peregrin (Homo sapiens)): 3.6 °C
ΔTm [1]: 1.3 °C
ΔTm [2]: 1.2 °C
Compound: Cn1c(=O)ccc2cc(NS(=O)(=O)c3ccc(C#N)cc3F)ccc21
